GI50 data for one molecule are collected here from patent US20230338370A1, “Treatment of Cancer with TOR Kinase Inhibitors” (Signal Pharmaceuticals, LLC, priority 2012, published 2023).

Common to all, as to experiment: Growth inhibition assay for Breast Cancer (BC) Cell lines
Type in all cases: cell-based

One test deals with EFM-192A. The conditions noted are these: Her2+, 96 hours, Cell Titer-Glo. On the procedure: (§1) Growth inhibition assay for Breast Cancer (BC) Cell lines. Compounds 1 (a TOR kinase inhibitor set forth herein having molecular formula C16H16N8O) and 2 (a TOR kinase inhibitor set forth herein having molecular formula C17H18N8O2) were dissolved in dimethyl sulfoxide (DMSO) to prepare a 10 mM stock solution. A serial titration was performed to produce a working concentration range of 1.5 µM to 10 mM. Aliquots to produce final concentrations of 1.5 nM to 10 µM were spotted via an acoustic dispenser (EDC ATS-100) into an empty 384-well plate. Compounds 1 and 2 were spotted in a 10-point serial dilution fashion (3-fold dilution) in duplicate within the plate. The DMSO concentration was kept constant for a final assay concentration of 0.1% DMSO. Plates were replicated for use with different cell lines and testing periods. After compound plate replication, all plates were sealed (Agilent ThermoLoc) and stored at -20° C. for up to 1 month. […] When ready for testing, plates were removed from the freezer, thawed, and unsealed just prior to the addition of the test cells. Prior to testing, cells were grown and expanded in culture flasks to provide sufficient amounts of starting material. Cells were then diluted to the appropriate densities and added directly to the compound-spotted 384-well plates. Cells were allowed to grow for 96 hours at 37° C./5% CO2. At the time when compound was added (t0), initial cell number was assessed via a viability assay (Cell Titer-Glo) by quantifying the level of luminescence generated by ATP present in viable cells. After 96 hours, cell viability of compound-treated cells was assessed via Cell Titer-Glo and luminescence measurement. Cell lines were assayed for growth inhibition by Compounds 1 and 2 in at least 3 independent tests. A control cell line (the lung tumor cell line, A549) was included in each of the assays. The compound response against this control cell line was monitored closely to enable comparison of the data generated through the assay period. All data were normalized and presented as a percentage of the DMSO-treated cells. Results were then expressed as a GI50 value. The GI50 value corrects for the cell count at time zero.
(Cellular ATP, detected with luciferase, serves as a proxy for viable cell number.)

In the next test the test system is MDA-MB-134-VI. Particulars: Homo sapiens, ER+/PR+, 96 hours, Cell Titer-Glo. The procedure:
as §1

A further test relates to HCC1428. Particulars: Homo sapiens; HCC1428, ER+/PR+; 96 hours, Cell Titer-Glo. On the procedure:
as §1

The subject of the next test is BT-474. The conditions noted are these: Homo sapiens; BT-474, Her2+; 96 hours, Cell Titer-Glo. The procedure: as §1
In the next test the test system is MDA-MB-415. Particulars: Homo sapiens; MDA-MB-415, ER+/PR+; 96 hours, Cell Titer-Glo. The procedure:
as §1

Another test deals with MDA-MB-175-VII. The conditions noted are these: Homo sapiens, ER+/PR+, 96 hours, Cell Titer-Glo. On the procedure:
as §1

For another test, the system named is HCC1954. Particulars: Homo sapiens; HCC1954, Her2+; 96 hours, Cell Titer-Glo. On the procedure: as §1
A further test deals with HCC1569. The conditions noted are these: Homo sapiens; HCC1569, Her2+; 96 hours, Cell Titer-Glo. The procedure: as §1
Another test concerns KPL-1. The conditions noted are these: KPL-1, ER+/PR+; 96 hours, Cell Titer-Glo. On the procedure: as §1
In another test the test system is EFM-19. The conditions noted are these: Homo sapiens; EFM-19, ER+/PR+; 96 hours, Cell Titer-Glo. On the procedure:
as §1

Another test relates to MDA-MB-361. The conditions noted are these: Homo sapiens; MDA-MB-361, Her2+; 96 hours, Cell Titer-Glo. On the procedure:
as §1

A further test relates to ZR-75-30. Particulars: Homo sapiens; ZR-75-30, Her2+; 96 hours, Cell Titer-Glo. The procedure:
as §1

Another test concerns CAMA-1. Particulars: Homo sapiens; CAMA-1, ER+/PR+; 96 hours, Cell Titer-Glo. The procedure: as §1
In another test the test system is MCF7. Particulars: Homo sapiens; MCF7, ER+/PR+; 96 hours, Cell Titer-Glo. On the procedure:
as §1

The next test deals with T47D. Particulars: Homo sapiens, ER+/PR+, 96 hours, Cell Titer-Glo. The procedure: as §1
Another test deals with ZR-75-1. Particulars: Homo sapiens; ZR-75-1, ER+/PR+; 96 hours, Cell Titer-Glo. The procedure:
as §1

For a further test, the system named is BT-483. The conditions noted are these: Homo sapiens; BT-483, ER+/PR+; 96 hours, Cell Titer-Glo. The procedure: as §1
A further test concerns HCC1500. The conditions noted are these: HCC1500, ER+/PR+; 96 hours, Cell Titer-Glo. On the procedure:
as §1

The subject of a further test is UACC-812. Particulars: Homo sapiens; UACC-812, Her2+; 96 hours, Cell Titer-Glo. On the procedure: as §1
Another test deals with AU565. The conditions noted are these: Homo sapiens; AU565, Her2+; 96 hours, Cell Titer-Glo. On the procedure:
as §1

The test system of another test is MDA-MB-453. The conditions noted are these: Homo sapiens; MDA-MB-453, Her2+; 96 hours, Cell Titer-Glo. The procedure:
as §1

Another test has as its system HCC202. The conditions noted are these: HCC202, Her2+; 96 hours, Cell Titer-Glo. On the procedure: as §1
The test system of a further test is SK-BR-3. Particulars: Homo sapiens; SK-BR-3, Her2+; 96 hours, Cell Titer-Glo. The procedure:
as §1

The structures appear in SMILES notation.

The GI50 is the concentration giving 50% growth inhibition.

Regarding `COCCN1C(=O)CNc2ncc(-c3ccc(-c4nnc[nH]4)nc3C)nc21` [Compound 2, 1-(2-methoxyethyl)-7-(2-methyl-6-(4H-1,2,4-triazol-3-yl)pyridin-3-yl)-3,4-dihydropyrazino[2,3-b]pyrazin-2(1H)-one], the GI50 with EFM-192A was found to be 74.1 nM; with MDA-MB-134-VI, 69.5 nM; in the test on HCC1428, 96.5 nM; in the test with BT-474, 78.2 nM; in the test on MDA-MB-415, 53.4 nM; in the test on MDA-MB-175-VII, 17 nM. In addition, the GI50 was 73.3 nM in the test on HCC1954; 120 nM in the test with HCC1569; 50.7 nM in the test with KPL-1; 21.1 nM in the test with EFM-19; 28.5 nM in the test on MDA-MB-361; 18.8 nM with ZR-75-30. Besides, the GI50 worked out at 44.6 nM with CAMA-1; 83.4 nM in the test on MCF7; 21.4 nM in the test with T47D; 10.3 nM in the test on ZR-75-1; 17.3 nM in the test on BT-483; 24.6 nM with HCC1500. Further, the GI50 in the test with UACC-812 is 32.1 nM; in the test on AU565, 58.2 nM; with MDA-MB-453, 44.5 nM; in the test on HCC202 it was 8.9 nM; in the test with SK-BR-3 it was 66.8 nM.
